Reference: patent US9050341B2, “Methods of treating drug resistant and other tumors by administering 6,7-dialkoxy quinazoline derivatives” (NATCO PHARMA LIMITED, priority 2009, dated 2015)

Key:
Experiment in all cases: KinomeScan kinase profiling
Type in all cases: binding
ACVR2B = molecular target: T1, ACVR2B (Homo sapiens, UniProt Q13705)
T1 construct: host or cells: E. coli host derived from BL21 (T7 phage lysate)
In short: (§1)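 Kinases were expressed as T7 phage fusions in a BL21-derived E. coli host and the cleared lysates were used. Ligand beads were blocked with biotin and buffer (1% BSA, 0.05% Tween 20, 1 mM DTT). Compounds came from 40× DMSO stocks, and phage in the eluates was titred by qPCR.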

AURKC = molecular target: T2, AURKC (Homo sapiens, UniProt Q9UQB9)
T2 construct: purchased Ambit Biosciences Corp (KinomeScan); host or cells: E. coli host derived from the BL21 strain, T7 phage
In short: as §1

BMX = molecular target: T3, BMX (Homo sapiens, UniProt P51813)
T3 construct: purchased Ambit Biosciences Corp (KinomeScan); host or cells: E. coli host derived from the BL21 strain, T7 phage
In short: as §1

DAPK2 = molecular target: T4, DAPK2 (Homo sapiens, UniProt Q9UIK4)
T4 construct: purchased Ambit Biosciences Corp (KinomeScan); host or cells: T7 phage in E. coli host derived from BL21
T4 sequence (Q9UIK4 whole entry): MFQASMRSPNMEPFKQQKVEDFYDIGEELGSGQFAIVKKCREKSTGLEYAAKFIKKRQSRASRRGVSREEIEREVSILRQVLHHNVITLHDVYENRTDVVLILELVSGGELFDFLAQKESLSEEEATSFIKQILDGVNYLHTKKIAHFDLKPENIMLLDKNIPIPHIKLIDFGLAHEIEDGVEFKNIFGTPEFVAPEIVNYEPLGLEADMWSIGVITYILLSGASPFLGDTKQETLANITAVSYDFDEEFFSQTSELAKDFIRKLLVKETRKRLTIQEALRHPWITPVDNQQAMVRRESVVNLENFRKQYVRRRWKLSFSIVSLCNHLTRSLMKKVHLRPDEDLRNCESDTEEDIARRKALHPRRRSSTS
In short: as §1

GSK3B = molecular target: T5, GSK3B (Homo sapiens, UniProt P49841)
T5 construct: host or cells: E. coli host derived from BL21, infected with T7 phage
T5 sequence (P49841 whole entry): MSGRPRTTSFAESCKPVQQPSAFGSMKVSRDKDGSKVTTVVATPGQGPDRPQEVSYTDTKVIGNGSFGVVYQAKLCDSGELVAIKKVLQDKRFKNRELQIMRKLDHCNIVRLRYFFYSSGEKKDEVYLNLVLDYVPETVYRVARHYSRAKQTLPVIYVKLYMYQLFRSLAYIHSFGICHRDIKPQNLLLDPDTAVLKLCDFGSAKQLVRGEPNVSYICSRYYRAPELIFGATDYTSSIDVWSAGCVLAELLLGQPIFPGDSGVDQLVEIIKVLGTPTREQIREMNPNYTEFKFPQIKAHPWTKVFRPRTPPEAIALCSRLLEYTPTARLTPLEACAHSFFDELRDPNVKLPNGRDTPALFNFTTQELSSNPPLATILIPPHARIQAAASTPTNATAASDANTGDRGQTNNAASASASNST
In short: as §1

INSRR = molecular target: T6, INSRR (Homo sapiens, UniProt P14616)
T6 construct: host or cells: T7 phage in E. coli host derived from BL21
In short: as §1

MARK2 = molecular target: T7, MARK2 (Homo sapiens, UniProt Q7KZI7)
T7 construct: host or cells: E. coli derived from BL21, infected with T7 phage
T7 sequence (Q7KZI7 whole entry): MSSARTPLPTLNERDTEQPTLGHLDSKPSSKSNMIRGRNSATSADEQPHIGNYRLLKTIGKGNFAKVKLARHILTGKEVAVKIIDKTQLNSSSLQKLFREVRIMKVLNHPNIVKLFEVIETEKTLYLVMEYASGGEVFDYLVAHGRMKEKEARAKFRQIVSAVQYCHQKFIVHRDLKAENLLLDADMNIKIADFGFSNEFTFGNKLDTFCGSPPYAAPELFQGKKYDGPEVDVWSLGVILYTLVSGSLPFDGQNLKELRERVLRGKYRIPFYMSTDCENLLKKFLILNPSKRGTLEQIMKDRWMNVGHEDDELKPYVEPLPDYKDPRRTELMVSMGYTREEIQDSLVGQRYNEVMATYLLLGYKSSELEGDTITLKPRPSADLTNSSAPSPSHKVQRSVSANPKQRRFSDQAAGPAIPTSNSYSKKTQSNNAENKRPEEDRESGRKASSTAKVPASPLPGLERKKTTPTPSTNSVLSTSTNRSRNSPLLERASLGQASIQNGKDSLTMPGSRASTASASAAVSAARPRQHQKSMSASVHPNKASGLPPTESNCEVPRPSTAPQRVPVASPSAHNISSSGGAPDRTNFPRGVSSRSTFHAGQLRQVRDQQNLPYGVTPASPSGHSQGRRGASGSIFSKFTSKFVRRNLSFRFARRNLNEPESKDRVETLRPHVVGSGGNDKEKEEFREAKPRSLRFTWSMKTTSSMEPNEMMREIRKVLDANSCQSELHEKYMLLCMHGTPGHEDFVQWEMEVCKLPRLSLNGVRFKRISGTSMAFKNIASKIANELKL
In short: as §1

MINK = molecular target: T8, MINK (Homo sapiens, UniProt Q8N4C8)
T8 construct: host or cells: E. coli derived from BL21, infected with T7 phage
In short: as §1

PAK4 = molecular target: T9, PAK4 (Homo sapiens, UniProt O96013)
T9 construct: host or cells: E. coli host derived from the BL21 strain, infected with T7 phage
In short: as §1

PCTK3 = molecular target: T10, PCTK3 (Homo sapiens, UniProt Q07002)
T10 construct: host or cells: E. coli host derived from the BL21 strain, infected with T7 phage
T10 sequence (Q07002 whole entry): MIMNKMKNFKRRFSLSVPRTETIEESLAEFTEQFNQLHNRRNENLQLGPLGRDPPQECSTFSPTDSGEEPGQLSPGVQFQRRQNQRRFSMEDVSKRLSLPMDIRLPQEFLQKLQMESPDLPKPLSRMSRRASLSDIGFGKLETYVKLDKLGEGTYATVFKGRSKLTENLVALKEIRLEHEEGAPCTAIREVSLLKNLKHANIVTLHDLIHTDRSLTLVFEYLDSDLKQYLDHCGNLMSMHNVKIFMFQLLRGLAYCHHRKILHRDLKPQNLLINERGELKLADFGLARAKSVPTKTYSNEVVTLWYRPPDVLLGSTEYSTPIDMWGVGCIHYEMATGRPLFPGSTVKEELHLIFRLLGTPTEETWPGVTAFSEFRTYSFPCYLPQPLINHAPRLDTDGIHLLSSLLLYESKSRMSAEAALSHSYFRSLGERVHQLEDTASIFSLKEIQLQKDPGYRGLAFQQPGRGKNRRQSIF
In short: as §1

PIK3CB = molecular target: T11, PIK3CB (Homo sapiens, UniProt P42338)
T11 construct: host or cells: E. coli host derived from the BL21 strain, infected with T7 phage
In short: as §1

PRKD3 = molecular target: T12, PRKD3 (Homo sapiens, UniProt O94806)
T12 construct: purchased Ambit Biosciences Corp (KinomeScan); host or cells: E. coli host derived from BL21, infected with T7 phage
In short: as §1

PRKX = molecular target: T13, PRKX (Homo sapiens, UniProt P51817)
T13 construct: host or cells: E. coli host derived from BL21, T7 phage lysate
T13 sequence (P51817 whole entry): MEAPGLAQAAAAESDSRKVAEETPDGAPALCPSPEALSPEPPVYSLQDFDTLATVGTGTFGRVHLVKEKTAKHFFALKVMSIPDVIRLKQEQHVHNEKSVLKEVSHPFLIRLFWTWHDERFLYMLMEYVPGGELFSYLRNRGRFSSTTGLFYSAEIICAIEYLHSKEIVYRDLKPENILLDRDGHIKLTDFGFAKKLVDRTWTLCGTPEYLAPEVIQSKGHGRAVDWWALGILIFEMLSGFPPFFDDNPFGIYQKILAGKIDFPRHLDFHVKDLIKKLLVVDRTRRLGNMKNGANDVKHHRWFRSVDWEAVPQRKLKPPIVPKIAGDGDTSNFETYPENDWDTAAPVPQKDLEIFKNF
In short: as §1

[1] = molecular target: T14, RPS6KA2 (Kin.Dom.-2-C-terminal) (Homo sapiens, UniProt Q15349)
T14 construct: RPS6KA2 (Kin.Dom.-2-C-terminal); host or cells: E. coli host derived from BL21, T7 phage lysate
In short: as §1

SRMS = molecular target: T15, SRMS (Homo sapiens, UniProt Q9H3Y6)
T15 construct: host or cells: E. coli host derived from the BL21 strain, T7 phage lysate
T15 sequence (Q9H3Y6 whole entry): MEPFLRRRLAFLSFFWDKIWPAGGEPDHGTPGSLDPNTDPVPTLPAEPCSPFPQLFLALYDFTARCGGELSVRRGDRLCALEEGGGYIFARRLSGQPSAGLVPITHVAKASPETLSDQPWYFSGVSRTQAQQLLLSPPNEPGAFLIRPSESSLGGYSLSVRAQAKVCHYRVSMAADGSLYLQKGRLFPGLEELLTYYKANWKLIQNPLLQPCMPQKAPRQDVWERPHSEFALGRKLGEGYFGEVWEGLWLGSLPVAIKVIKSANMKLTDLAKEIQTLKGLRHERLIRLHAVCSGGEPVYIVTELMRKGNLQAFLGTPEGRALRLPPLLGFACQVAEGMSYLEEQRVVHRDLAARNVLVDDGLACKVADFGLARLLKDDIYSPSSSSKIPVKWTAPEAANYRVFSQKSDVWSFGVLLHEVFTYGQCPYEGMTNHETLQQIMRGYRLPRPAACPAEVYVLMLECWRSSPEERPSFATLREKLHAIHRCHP
In short: as §1

TIE2 = molecular target: T16, TIE2 (Homo sapiens, UniProt Q02763)
T16 construct: purchased Ambit Biosciences Corp (KinomeScan); host or cells: E. coli host derived from the BL21 strain (T7 phage lysate)
In short: as §1

TLK1 = molecular target: T17, TLK1 (Homo sapiens, UniProt Q9UKI8)
T17 construct: purchased Ambit Biosciences Corp (KinomeScan); host or cells: E. coli host derived from the BL21 strain (T7 phage lysate)
In short: as §1

TNIK = molecular target: T18, TNIK (Homo sapiens, UniProt Q9UKE5)
T18 construct: purchased Ambit Biosciences Corp (KinomeScan); host or cells: E. coli host derived from the BL21 strain (T7 phage lysate)
T18 sequence (Q9UKE5 whole entry): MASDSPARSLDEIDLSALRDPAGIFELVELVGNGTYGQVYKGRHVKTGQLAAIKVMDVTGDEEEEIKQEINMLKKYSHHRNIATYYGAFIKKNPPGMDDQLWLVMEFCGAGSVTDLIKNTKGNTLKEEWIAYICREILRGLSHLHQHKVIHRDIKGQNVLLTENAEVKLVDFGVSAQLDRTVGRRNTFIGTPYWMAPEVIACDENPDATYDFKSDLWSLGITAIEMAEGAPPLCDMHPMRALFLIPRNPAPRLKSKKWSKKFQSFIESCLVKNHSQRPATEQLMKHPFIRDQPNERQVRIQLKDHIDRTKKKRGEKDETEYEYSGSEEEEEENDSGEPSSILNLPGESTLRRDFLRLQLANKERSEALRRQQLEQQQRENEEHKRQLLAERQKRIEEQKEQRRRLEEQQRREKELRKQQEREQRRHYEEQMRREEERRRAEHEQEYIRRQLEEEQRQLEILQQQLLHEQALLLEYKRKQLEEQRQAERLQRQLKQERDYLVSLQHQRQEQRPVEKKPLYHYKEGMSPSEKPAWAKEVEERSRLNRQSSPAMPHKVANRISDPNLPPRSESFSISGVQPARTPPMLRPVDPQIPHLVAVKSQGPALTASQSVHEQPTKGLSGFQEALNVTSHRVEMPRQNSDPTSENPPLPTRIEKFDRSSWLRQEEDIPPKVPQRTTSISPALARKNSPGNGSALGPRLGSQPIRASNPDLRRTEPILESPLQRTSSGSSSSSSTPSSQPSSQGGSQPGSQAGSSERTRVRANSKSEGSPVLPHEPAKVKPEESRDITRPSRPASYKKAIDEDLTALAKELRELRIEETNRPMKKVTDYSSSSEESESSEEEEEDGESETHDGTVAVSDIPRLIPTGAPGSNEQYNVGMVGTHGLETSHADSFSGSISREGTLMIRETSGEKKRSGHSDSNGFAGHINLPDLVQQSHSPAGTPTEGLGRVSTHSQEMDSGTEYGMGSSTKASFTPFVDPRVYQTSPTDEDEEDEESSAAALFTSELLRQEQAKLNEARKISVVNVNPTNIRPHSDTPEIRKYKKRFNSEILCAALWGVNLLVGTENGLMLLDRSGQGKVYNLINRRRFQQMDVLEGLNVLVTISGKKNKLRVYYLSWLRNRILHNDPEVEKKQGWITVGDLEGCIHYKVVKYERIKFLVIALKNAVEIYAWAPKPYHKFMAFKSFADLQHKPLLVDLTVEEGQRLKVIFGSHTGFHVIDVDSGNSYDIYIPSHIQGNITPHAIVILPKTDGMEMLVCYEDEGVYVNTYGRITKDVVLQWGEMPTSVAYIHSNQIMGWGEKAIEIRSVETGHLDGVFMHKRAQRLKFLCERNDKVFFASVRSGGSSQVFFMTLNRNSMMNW
In short: as §1

[2] = molecular target: T19, TYK2 (JH2domain-pseudokinase) (Homo sapiens, UniProt P29597)
T19 construct: TYK2 (JH2domain-pseudokinase); purchased Ambit Biosciences Corp (KinomeScan); host or cells: E. coli host derived from the BL21 strain (T7 phage lysate)
T19 sequence (P29597 589-875 limits assumed): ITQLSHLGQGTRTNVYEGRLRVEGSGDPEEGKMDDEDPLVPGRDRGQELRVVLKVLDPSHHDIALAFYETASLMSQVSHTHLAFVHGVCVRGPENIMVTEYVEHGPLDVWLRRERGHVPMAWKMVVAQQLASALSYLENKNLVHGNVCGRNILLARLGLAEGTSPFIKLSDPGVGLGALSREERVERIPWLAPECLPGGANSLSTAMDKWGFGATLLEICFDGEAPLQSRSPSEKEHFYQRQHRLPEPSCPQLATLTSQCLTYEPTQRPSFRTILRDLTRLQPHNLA
In short: as §1

ULK3 = molecular target: T20, ULK3 (Homo sapiens, UniProt Q6PHR2)
T20 construct: purchased Ambit Biosciences Corp (KinomeScan); host or cells: E. coli host derived from the BL21 strain (T7 phage lysate)
In short: as §1

YSK1 = molecular target: T21, YSK1 (Homo sapiens, UniProt O00506)
T21 construct: host or cells: E. coli host derived from the BL21 strain, infected with T7 phage
T21 sequence (O00506 whole entry): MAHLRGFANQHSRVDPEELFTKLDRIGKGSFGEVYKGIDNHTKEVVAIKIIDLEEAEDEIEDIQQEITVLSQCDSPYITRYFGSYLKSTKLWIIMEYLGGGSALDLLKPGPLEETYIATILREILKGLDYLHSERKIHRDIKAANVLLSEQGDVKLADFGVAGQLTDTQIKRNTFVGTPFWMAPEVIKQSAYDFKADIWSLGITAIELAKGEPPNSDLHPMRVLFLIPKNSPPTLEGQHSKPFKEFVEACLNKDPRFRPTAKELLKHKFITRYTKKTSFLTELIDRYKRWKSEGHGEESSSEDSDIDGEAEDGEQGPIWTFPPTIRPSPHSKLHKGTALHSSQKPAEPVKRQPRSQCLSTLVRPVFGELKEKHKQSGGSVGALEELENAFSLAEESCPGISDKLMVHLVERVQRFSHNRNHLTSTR
In short: as §1

`C#Cc1cccc(Nc2ncnc3cc(OC)c(OCCCN4CCOCC4)cc23)c1` [NRC-2694, N-(3-ethylnylphenyl)-7-methoxy-6-[3-(4-morpholinyl)propoxy]-4-quinazolinamine] was tested, and the “% Ctrl @ 10000 nM” value (ACVR2B) was 63 % Ctrl, the “% Ctrl @ 10000 nM” value (AURKC) was 47 % Ctrl and the “% Ctrl @ 10000 nM” value (BMX) was 73 % Ctrl. The “% Ctrl @ 10000 nM” value (DAPK2) was 61 % Ctrl, the “% Ctrl @ 10000 nM” value (GSK3B) was 100 % Ctrl and the “% Ctrl @ 10000 nM” value (INSRR) was 79 % Ctrl. For the same molecule, the “% Ctrl @ 10000 nM” value (MARK2) was 70 % Ctrl, the “% Ctrl @ 10000 nM” value (MINK) was 16 % Ctrl and the “% Ctrl @ 10000 nM” value (PAK4) was 80 % Ctrl. The “% Ctrl @ 10000 nM” value (PCTK3) was 82 % Ctrl, the “% Ctrl @ 10000 nM” value (PIK3CB) was 100 % Ctrl and the “% Ctrl @ 10000 nM” value (PRKD3) was 7.2 % Ctrl. The “% Ctrl @ 10000 nM” value (PRKX) was 100 % Ctrl, the “% Ctrl @ 10000 nM” value [1] was 78 % Ctrl and the “% Ctrl @ 10000 nM” value (SRMS) was 100 % Ctrl. For the same molecule, the “% Ctrl @ 10000 nM” value (TIE2) was 76 % Ctrl, the “% Ctrl @ 10000 nM” value (TLK1) was 77 % Ctrl and the “% Ctrl @ 10000 nM” value (TNIK) was 17 % Ctrl. For the same molecule, the “% Ctrl @ 10000 nM” value [2] was 23 % Ctrl, the “% Ctrl @ 10000 nM” value (ULK3) was 62 % Ctrl and the “% Ctrl @ 10000 nM” value (YSK1) was 69 % Ctrl.
